Measurements published in ChEMBL document CHEMBL5543146 (J Med Chem, 2024).
pEC50, pIC50, pKi: −log10 of the molar value. Each block holds one compound with its values, some of them ahead of it.

Experiments:
[1] = target: T1, Fibroblast growth factor receptor 3 (Homo sapiens, UniProt P22607); assay: Inhibition of full length nanoluc-fused FGFR3 transfected in HEK293T cells assessed as target engagement incubated for 3 hrs in presence of K10 tracer by Nano BRET assay; assay type: cell-based
Target sequence in this assay (P22607 whole entry, the tested form may be a part): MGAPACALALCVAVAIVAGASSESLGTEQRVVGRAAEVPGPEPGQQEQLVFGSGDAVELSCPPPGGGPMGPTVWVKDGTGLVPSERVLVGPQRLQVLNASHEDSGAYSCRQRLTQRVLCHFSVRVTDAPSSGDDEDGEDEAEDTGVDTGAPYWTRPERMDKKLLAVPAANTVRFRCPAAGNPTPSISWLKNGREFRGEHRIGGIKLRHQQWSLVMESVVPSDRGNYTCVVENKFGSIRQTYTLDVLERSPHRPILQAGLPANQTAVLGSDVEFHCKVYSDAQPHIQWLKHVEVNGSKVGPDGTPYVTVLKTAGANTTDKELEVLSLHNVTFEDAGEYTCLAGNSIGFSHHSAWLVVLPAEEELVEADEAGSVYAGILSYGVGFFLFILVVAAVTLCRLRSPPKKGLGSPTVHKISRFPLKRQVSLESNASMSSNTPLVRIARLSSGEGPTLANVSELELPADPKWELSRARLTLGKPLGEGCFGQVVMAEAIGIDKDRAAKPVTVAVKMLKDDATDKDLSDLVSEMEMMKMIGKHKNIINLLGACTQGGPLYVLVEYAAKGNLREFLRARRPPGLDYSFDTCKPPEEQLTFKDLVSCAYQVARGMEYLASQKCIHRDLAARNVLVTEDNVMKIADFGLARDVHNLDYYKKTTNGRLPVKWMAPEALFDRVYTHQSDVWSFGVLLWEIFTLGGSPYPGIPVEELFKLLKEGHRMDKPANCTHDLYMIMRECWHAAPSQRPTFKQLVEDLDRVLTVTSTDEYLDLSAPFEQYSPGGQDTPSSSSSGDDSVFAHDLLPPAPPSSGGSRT

[2] = target: T2, Fibroblast growth factor receptor 1 (Homo sapiens, UniProt P11362); assay: Inhibition of full length nanoluc-fused FGFR1 transfected in HEK293T cells assessed as target engagement incubated for 3 hrs in presence of K10 tracer by Nano BRET assay; assay type: cell-based
[3] = Metabolic stability in human liver microsomes assessed as compound remaining measured after 2 hrs in presence of NADPH regenerating system measured upto 120 mins by LC-MS analysis; assay type: ADME, Microsome; conditions: read-out: Stability
[4] = target: T1, Fibroblast growth factor receptor 3; assay: Binding affinity to FGFR3 (unknown origin) assessed as change in melting temperature by differential scanning fluorimetry analysis
[5] = target: T3, Fibroblast growth factor receptor 4 (Homo sapiens, UniProt P22455); assay: Inhibition of N-terminal GST tagged cytoplasmic domain human FGFR4 (460 to 802 residues) expressed in Escherichia coli BL21 (DE3) using CSox as substrate incubated for 240 mins in presence of ATP by hotspot assay
Target sequence in this assay (P22455 whole entry, the tested form may be a part): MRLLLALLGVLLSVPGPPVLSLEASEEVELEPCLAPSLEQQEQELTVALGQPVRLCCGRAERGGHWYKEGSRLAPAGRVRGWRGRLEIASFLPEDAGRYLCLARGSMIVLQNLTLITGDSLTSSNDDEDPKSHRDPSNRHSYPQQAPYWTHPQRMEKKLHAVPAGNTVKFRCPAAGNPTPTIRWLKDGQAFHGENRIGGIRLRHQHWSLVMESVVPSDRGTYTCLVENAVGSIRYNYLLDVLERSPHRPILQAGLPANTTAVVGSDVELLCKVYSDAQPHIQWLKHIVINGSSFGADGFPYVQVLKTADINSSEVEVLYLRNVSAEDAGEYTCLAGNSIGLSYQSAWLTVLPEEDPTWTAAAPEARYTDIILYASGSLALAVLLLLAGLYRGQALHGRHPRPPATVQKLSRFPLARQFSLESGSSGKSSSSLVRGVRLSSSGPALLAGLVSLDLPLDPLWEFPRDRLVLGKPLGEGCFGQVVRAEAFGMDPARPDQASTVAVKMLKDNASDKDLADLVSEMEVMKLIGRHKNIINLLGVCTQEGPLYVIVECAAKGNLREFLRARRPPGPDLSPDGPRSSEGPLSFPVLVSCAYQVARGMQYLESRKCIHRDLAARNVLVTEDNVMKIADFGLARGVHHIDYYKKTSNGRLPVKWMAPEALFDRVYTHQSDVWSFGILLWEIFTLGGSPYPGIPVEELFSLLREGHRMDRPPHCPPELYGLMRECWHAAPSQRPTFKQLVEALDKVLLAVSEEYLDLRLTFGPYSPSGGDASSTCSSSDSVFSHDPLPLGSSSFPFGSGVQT

[6] = tested on: Hep 3B2; assay: cells; conditions: Homo sapiens, Hep3B, 96 h
Description: Antiproliferative activity against human Hep3B cells measured after 4 days by Celltiter-glo based luminescent assay

[7] = target: T3, Fibroblast growth factor receptor 4; assay: Inhibition of N-terminal GST tagged cytoplasmic domain human FGFR4 (460 to 802 residues) expressed in Escherichia coli BL21 (DE3) using CSox as substrate assessed as residual activity at 5 uM incubated for 240 mins in presence of ATP by hotspot assay relative to control
Target sequence in this assay (P22455 22-802 limits assumed): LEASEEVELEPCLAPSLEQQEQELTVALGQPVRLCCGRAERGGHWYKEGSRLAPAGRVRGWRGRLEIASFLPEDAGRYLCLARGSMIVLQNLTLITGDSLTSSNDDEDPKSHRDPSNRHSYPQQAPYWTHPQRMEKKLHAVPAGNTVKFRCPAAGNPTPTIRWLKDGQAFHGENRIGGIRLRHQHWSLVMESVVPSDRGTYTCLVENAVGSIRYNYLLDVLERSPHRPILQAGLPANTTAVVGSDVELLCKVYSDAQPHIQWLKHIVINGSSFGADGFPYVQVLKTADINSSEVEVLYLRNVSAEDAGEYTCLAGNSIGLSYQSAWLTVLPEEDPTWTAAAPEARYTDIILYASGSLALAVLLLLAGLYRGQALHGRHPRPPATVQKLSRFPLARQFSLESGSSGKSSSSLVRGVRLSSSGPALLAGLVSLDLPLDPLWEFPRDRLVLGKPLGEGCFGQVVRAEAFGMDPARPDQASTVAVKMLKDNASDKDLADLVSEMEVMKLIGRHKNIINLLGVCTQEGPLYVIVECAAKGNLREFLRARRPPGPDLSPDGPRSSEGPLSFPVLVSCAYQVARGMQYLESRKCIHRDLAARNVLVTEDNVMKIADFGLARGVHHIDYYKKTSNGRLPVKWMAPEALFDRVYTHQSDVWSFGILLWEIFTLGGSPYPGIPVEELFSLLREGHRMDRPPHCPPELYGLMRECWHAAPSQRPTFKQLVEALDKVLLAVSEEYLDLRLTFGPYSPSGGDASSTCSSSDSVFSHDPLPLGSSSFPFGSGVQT

[8] = target: T3, Fibroblast growth factor receptor 4; assay: Inhibition of full length nanoluc-fused FGFR4 transfected in HEK293T cells assessed as target engagement incubated for 3 hrs in presence of K10 tracer by Nano BRET assay; assay type: cell-based
Target sequence in this assay (P22455 whole entry, the tested form may be a part): as the sequence (P22455 whole entry, the tested form may be a part) above

[9] = target: T4, Fibroblast growth factor receptor 2 (Homo sapiens, UniProt P21802); assay: Inhibition of full length nanoluc-fused FGFR2 transfected in HEK293T cells assessed as target engagement incubated for 3 hrs in presence of K10 tracer by Nano BRET assay; assay type: cell-based
[10] = target: Ribosomal protein S6 kinase beta-2 (Homo sapiens, UniProt Q9UBS0); assay: Inhibition of human wild type S6K2 using RBER-CHKtide as substrate in presence of ATP by hotspot assay
[11] = target: MAP kinase-activated protein kinase 3 (Homo sapiens, UniProt Q16644); assay: Inhibition of human MAPKAPK3 using KKLNRTLSVA as substrate in presence of ATP by hotspot assay
[12] = target: T2, Fibroblast growth factor receptor 1; assay: Inhibition of human FGFR1 using poly[Glu:Tyr] (4:1) as substrate in presence of ATP by hotspot assay
[13] = target: T3, Fibroblast growth factor receptor 4; assay: Inhibition of N-terminal GST tagged cytoplasmic domain human FGFR4 (460 to 802 residues) expressed in Escherichia coli BL21 (DE3) by phosphosen-csox based assay
Target sequence in this assay (P22455 whole entry, the tested form may be a part): as above

[14] = target: MAP kinase-activated protein kinase 2 (Homo sapiens, UniProt P49137); assay: Inhibition of human MAPKAPK2 using KKLNRTLSVA as substrate in presence of ATP by hotspot assay
[15] = target: T4, Fibroblast growth factor receptor 2; assay: Inhibition of human FGFR2 in presence of ATP by hotspot assay
[16] = target: T1, Fibroblast growth factor receptor 3; assay: Inhibition of human wild type FGFR3 using polyEY as substrate in presence of ATP by hotspot assay
Target sequence in this assay (P22607 whole entry, the tested form may be a part): as the sequence (P22607 whole entry, the tested form may be a part) above

[17] = target: T3, Fibroblast growth factor receptor 4; assay: Binding affinity to N-terminal GST tagged cytoplasmic domain human FGFR4 (460 to 802 residues) expressed in Escherichia coli BL21 (DE3) assessed as inhibition constant using sox as substrate incubated for 30 mins followed by enzyme addition and measured after 120 mins in presence of ATP by PhosphoSens CSox-based continuous assay
Target sequence in this assay (P22455 whole entry, the tested form may be a part): as the sequence (P22455 whole entry, the tested form may be a part) above

[18] = target: T5, Dual specificity protein kinase TTK (Homo sapiens, UniProt P33981); assay: Inhibition of human wild type TTK using RBER-CHKtide as substrate in presence of ATP by hotspot assay
T5 sequence (P33981 whole entry): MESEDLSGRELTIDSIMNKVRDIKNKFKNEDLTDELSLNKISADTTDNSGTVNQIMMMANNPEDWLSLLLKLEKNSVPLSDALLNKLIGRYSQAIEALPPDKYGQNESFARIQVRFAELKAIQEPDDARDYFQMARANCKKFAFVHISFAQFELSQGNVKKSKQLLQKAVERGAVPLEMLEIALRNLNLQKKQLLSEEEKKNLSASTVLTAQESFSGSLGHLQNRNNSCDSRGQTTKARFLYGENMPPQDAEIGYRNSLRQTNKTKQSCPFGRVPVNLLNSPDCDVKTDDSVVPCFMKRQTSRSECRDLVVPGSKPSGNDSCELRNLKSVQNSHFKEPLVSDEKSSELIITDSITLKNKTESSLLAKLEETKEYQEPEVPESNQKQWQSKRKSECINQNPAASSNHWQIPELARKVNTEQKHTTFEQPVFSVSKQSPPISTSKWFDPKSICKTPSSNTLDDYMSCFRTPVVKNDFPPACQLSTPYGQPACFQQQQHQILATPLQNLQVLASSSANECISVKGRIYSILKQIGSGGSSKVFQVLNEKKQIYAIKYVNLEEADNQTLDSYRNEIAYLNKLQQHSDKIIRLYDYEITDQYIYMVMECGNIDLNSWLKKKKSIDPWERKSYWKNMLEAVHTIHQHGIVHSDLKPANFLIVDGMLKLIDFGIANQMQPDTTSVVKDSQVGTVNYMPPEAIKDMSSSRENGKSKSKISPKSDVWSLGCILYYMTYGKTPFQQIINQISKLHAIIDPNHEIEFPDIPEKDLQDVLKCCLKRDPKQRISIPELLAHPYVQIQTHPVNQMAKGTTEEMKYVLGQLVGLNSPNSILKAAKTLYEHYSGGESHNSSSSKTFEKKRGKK

T4 sequence (P21802 whole entry, the tested form may be a part): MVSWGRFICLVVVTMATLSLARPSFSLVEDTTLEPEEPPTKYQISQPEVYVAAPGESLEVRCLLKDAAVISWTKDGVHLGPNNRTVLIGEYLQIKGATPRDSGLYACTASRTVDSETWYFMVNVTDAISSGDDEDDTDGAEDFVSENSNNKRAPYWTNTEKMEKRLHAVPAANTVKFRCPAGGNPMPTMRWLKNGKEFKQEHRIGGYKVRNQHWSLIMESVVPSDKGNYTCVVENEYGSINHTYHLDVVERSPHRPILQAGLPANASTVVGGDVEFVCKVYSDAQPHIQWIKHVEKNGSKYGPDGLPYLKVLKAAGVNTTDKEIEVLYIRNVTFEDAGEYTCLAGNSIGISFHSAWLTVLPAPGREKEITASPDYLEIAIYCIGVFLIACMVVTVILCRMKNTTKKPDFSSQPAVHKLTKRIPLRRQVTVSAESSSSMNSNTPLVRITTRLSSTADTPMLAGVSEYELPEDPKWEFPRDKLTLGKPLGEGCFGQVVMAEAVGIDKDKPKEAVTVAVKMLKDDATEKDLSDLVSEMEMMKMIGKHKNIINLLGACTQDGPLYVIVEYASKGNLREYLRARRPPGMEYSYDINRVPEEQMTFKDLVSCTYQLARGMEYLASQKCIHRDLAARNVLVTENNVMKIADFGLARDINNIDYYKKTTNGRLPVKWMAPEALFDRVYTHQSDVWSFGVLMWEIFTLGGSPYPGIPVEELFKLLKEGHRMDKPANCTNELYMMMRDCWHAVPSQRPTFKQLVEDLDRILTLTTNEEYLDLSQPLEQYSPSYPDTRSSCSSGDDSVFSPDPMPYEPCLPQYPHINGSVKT
T2 sequence (P11362 whole entry, the tested form may be a part): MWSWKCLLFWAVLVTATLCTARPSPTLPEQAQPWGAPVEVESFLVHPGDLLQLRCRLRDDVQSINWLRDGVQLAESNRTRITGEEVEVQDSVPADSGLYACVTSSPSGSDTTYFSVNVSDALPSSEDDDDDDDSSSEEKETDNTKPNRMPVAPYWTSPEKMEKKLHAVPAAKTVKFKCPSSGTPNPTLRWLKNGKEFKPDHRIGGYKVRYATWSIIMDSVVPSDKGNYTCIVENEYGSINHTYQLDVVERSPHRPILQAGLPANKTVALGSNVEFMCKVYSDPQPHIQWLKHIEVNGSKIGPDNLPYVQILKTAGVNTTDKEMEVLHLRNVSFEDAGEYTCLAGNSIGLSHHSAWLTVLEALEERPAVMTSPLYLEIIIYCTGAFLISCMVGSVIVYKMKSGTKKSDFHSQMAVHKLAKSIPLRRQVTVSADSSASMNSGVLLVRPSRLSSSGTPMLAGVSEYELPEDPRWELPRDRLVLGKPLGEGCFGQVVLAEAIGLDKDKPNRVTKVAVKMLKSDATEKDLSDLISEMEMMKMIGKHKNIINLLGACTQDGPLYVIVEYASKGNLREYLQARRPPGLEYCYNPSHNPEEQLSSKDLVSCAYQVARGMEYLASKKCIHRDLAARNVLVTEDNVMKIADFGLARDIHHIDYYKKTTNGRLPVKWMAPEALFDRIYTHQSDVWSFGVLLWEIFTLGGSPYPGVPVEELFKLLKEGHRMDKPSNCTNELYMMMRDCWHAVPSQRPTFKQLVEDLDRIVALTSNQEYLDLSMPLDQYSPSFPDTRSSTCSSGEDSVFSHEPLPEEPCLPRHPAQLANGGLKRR
Sequence of Ribosomal protein S6 kinase beta-2 (Q9UBS0 whole entry): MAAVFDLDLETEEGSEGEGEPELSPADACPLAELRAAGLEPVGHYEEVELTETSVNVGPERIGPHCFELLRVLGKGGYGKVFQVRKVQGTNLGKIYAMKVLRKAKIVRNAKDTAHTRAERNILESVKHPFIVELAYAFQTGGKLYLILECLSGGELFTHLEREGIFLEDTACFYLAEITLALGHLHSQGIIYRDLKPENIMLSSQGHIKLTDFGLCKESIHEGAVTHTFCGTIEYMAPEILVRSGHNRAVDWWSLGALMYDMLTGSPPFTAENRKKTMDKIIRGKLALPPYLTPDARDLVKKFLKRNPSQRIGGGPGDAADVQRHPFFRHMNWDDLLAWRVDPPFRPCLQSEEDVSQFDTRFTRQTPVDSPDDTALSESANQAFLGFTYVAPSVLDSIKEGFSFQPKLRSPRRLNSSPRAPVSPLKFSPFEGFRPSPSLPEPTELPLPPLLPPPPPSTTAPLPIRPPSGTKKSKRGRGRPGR
Sequence of MAP kinase-activated protein kinase 3 (Q16644 whole entry): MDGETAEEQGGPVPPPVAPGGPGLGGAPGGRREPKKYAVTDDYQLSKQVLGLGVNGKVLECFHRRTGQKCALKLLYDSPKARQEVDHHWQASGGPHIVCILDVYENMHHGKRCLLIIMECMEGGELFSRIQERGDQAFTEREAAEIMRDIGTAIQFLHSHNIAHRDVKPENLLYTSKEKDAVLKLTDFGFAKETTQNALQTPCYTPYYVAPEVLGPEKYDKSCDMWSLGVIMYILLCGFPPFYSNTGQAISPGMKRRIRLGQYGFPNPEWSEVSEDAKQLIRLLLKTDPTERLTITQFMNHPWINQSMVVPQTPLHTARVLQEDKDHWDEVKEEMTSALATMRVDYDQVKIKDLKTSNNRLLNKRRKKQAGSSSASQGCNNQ

pEC50 [1]: 5.75
pEC50 [2]: 6.06
remaining at 2 h [3]: > 80%
ΔTm [4]: 4.5 °C
pIC50 [5]: 5.77
pEC50 [6]: 5.97
Activity [7]: 89.4%
pEC50 [8]: 5.65
pEC50 [9]: 6.06
SMILES: COc1cc(OC)c(Cl)c(-c2ccc3nc(Nc4ncccc4[N+](=O)[O-])ncc3c2)c1Cl

pEC50 [1]: < 5.00
pIC50 [10]: 8.35
pEC50 [2]: < 5.00
pIC50 [11]: < 5.30
pIC50 [12]: < 5.30
pIC50 [5]: > 9.30
pEC50 [6]: 8.30
pIC50 [13]: 8.35
pIC50 [14]: < 5.30
pIC50 [15]: < 5.30
pIC50 [16]: < 5.30
pEC50 [8]: 7.52
pKi [17]: 7.42
pIC50 [18]: < 5.30
pEC50 [9]: < 5.00
SMILES: COc1cc(OC)cc(-c2ccc3nc(Nc4nc(Cl)ccc4[N+](=O)[O-])ncc3c2)c1

pIC50 [5]: 5.35
SMILES: COc1cc(OC)cc(-c2ccc3nc(Sc4nc(Cl)ccc4[N+](=O)[O-])ncc3c2)c1

pIC50 [5]: < 5.30
Activity [7]: 96.5%
SMILES: COc1cc(OC)cc(-c2ccc3nc(-c4cccc5cnc(Cl)nc45)ncc3c2)c1

pIC50 [5]: < 5.30
Activity [7]: 92.1%
SMILES: COc1cc(OC)cc(-c2ccc3nc(Nc4ncccc4[N+](=O)[O-])ncc3c2)c1

pIC50 [5]: < 5.30
Activity [7]: 97.9%
SMILES: COc1cc(OC)cc(-c2ccc3nc(Sc4ncccc4[N+](=O)[O-])ncc3c2)c1

pIC50 [5]: < 5.30
Activity [7]: 82.6%
SMILES: COc1cc(OC)cc(-c2ccc3nc(Sc4ccnc(Cl)n4)ncc3c2)c1

pIC50 [5]: < 5.30
Activity [7]: > 100%
SMILES: COc1cc(OC)cc(-c2ccc3nc(Sc4ccnc(F)n4)ncc3c2)c1

pIC50 [5]: < 5.30
Activity [7]: 93.1%
SMILES: COc1cc(OC)cc(-c2ccc3ncncc3c2)c1

pIC50 [5]: < 5.30
Activity [7]: 53.6%
SMILES: COc1cc(OC)cc(-c2ccc3nc(Nc4nc(C)ccc4[N+](=O)[O-])ncc3c2)c1

pEC50 [1]: 5.85
pIC50 [10]: 7.74
pIC50 [5]: > 9.30
pIC50 [13]: 8.92
pIC50 [15]: 6.31
pIC50 [16]: < 5.30
pEC50 [8]: 7.28
pKi [17]: 8.24
pIC50 [18]: < 5.30
pEC50 [9]: 5.89
SMILES: COc1cc(OC)c(Cl)c(-c2ccc3nc(Nc4nc(Cl)ccc4[N+](=O)[O-])ncc3c2)c1Cl

pIC50 [5]: < 5.30
Activity [7]: 96.5%
SMILES: COc1cc(OC)cc(-c2ccc3nc(Sc4nc(Cl)ncc4F)ncc3c2)c1

pIC50 [5]: < 5.30
SMILES: COc1cc(OC)cc(-c2ccc3nc(-n4ccc5cnc(Cl)nc54)ncc3c2)c1

pIC50 [5]: 5.68
SMILES: COc1cc(OC)c(Cl)c(-c2ccc3ncncc3c2)c1Cl

pEC50 [1]: 5.65
pEC50 [2]: 5.37
pEC50 [6]: 7.21
pEC50 [9]: 5.48
SMILES: C=CC(=O)Nc1cccc(C)c1Nc1ncc2cc(-c3c(Cl)c(OC)cc(OC)c3Cl)ccc2n1
